Experiments:
Type in all cases: in vivo
[1] = tested on: barnyardgrass (Echinochloa crus-galli); assay: Test A preemergence, barnyardgrass; conditions: Preemergence; for Barnyardgrass plant response rating: 125 g ai/ha, visual injury on 0 to 100 scale (0 no effect, 100 complete control), approximately 10 days; for Plant response rating, Barnyardgrass: 0 to 100 scale (0 no effect, 100 complete control)
Method in brief: (§1)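 Whole-plant herbicidal screen in pots of loam blended with sand. Sprays used a surfactant-containing, non-phytotoxic solvent vehicle. Timing was preemergence soil-directed at planting or postemergence at the one- to two-leaf stage (2–10 cm).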

[2] = tested on: kochia (Bassia scoparia); assay: Test A preemergence, kochia; conditions: Preemergence; for Kochia plant response rating: 125 g ai/ha, visual injury on 0 to 100 scale (0 no effect, 100 complete control), approximately 10 days; for Plant response rating, Kochia: 0 to 100 scale (0 no effect, 100 complete control)
Method in brief: as §1

[3] = tested on: ragweed (common ragweed, Ambrosia artemisiifolia); assay: Test A preemergence, ragweed; conditions: Preemergence; for Ragweed plant response rating: 125 g ai/ha, visual injury on 0 to 100 scale (0 no effect, 100 complete control), approximately 10 days; for Plant response rating, Ragweed: 0 to 100 scale (0 no effect, 100 complete control)
Method in brief: as §1

[4] = tested on: Ryegrass, Italian (Italian ryegrass, Lolium multiflorum); assay: Test A preemergence, Ryegrass, Italian; conditions: Preemergence; for Ryegrass, Italian plant response rating: 125 g ai/ha, visual injury on 0 to 100 scale (0 no effect, 100 complete control), approximately 10 days; for Plant response rating, Ryegrass, Italian: 0 to 100 scale (0 no effect, 100 complete control)
Method in brief: as §1

[5] = tested on: Foxtail, Giant (giant foxtail, Setaria faberi); assay: Test A preemergence, Foxtail, Giant; conditions: Preemergence; for Foxtail, Giant plant response rating: 125 g ai/ha, visual injury on 0 to 100 scale (0 no effect, 100 complete control), approximately 10 days; for Plant response rating, Foxtail, Giant: 0 to 100 scale (0 no effect, 100 complete control)
Method in brief: as §1

[6] = tested on: pigweed (Amaranthus retroflexus); assay: Test A preemergence, pigweed; conditions: for Pigweed plant response rating: 125 g ai/ha, visual injury on 0 to 100 scale (0 no effect, 100 complete control), approximately 10 days; for Plant response rating, Pigweed: 0 to 100 scale (0 no effect, 100 complete control)
Method in brief: (§2)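 Test chemicals, formulated in a non-phytotoxic solvent mixture with surfactant, were sprayed postemergence on plants 2 to 10 cm tall at the one- to two-leaf stage. Preemergence treatment was a directed soil spray onto freshly seeded pots. Both used a loam soil and sand blend.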

[7] = tested on: barnyardgrass (Echinochloa crus-galli); assay: Test A postemergence, barnyardgrass; conditions: Postemergence, 0 to 100 scale (0 no effect, 100 complete control); for Barnyardgrass plant response rating: 500 g ai/ha, visual injury vs untreated controls after approx. 10 days
Method in brief: as §2

[8] = tested on: kochia (Bassia scoparia); assay: Test A postemergence, kochia; conditions: Postemergence; for Kochia plant response rating: 500 g ai/ha, visual injury vs untreated controls after approx. 10 days
Method in brief: as §1

[9] = tested on: ragweed (common ragweed, Ambrosia artemisiifolia); assay: Test A postemergence, ragweed; conditions: Postemergence; for Ragweed plant response rating: 500 g ai/ha, visual injury vs untreated controls after approx. 10 days
Method in brief: as §1

[10] = tested on: Ryegrass, Italian (Italian ryegrass, Lolium multiflorum); assay: Test A postemergence, Ryegrass, Italian; conditions: Postemergence; for Ryegrass, Italian plant response rating: 500 g ai/ha, visual injury vs untreated controls after approx. 10 days
Method in brief: as §1

[11] = tested on: Foxtail, Giant (giant foxtail, Setaria faberi); assay: Test A postemergence, Foxtail, Giant; conditions: Postemergence; for Foxtail, Giant plant response rating: 500 g ai/ha, visual injury vs untreated controls after approx. 10 days
Method in brief: as §1

[12] = tested on: pigweed (Amaranthus retroflexus); assay: Test A postemergence, pigweed; conditions: Postemergence; for Pigweed plant response rating: 500 g ai/ha, visual injury vs untreated controls after approx. 10 days
Method in brief: as §1

[13] = tested on: wheat (Triticum aestivum); assay: Test A postemergence, wheat; conditions: Postemergence; for Wheat plant response rating: 500 g ai/ha, visual injury vs untreated controls after approx. 10 days
Method in brief: as §2

[14] = tested on: corn (Zea mays); assay: Test A postemergence, corn; conditions: Postemergence; for Corn plant response rating: 500 g ai/ha, visual injury vs untreated controls after approx. 10 days
Method in brief: as §1

[15] = tested on: blackgrass (Alopecurus myosuroides); assay: Test A postemergence, blackgrass; conditions: Postemergence, 0 to 100 scale (0 no effect, 100 complete control); for Blackgrass plant response rating: 500 g ai/ha, visual injury vs untreated controls after approx. 10 days
Method in brief: as §1

[16] = tested on: galium (catchweed bedstraw, Galium aparine); assay: Test A postemergence, galium; conditions: Postemergence; for Galium plant response rating: 500 g ai/ha, visual injury vs untreated controls after approx. 10 days
Method in brief: as §2

[17] = 125 g ai/ha, visual injury approx. 10 days
[18] = 125 g ai/ha, visual injury approx. 10 days, 0 to 100 scale (0 no effect, 100 complete control)
[19] = 0 to 100 scale (0 no effect, 100 complete control)
[20] = 31 g ai/ha, visual injury, approx. 10 days
[21] = 31 g ai/ha, visual injury on 0 to 100 scale (0 no effect, 100 complete control), approx. 10 days

Cc1cc(C)c(C(=O)N(C)CC2CC2)cc1NS(=O)(=O)C(F)(F)F [Compound 107]
60: Ryegrass, Italian plant response rating [4] | Foxtail, Giant plant response rating [5] | Pigweed plant response rating [12, 19]
20: Plant response rating, Kochia [8, 18]
90: Barnyardgrass plant response rating [1] | Plant response rating, Ryegrass, Italian ([4]; 500 g ai/ha) | Plant response rating, Pigweed ([6]; 500 g ai/ha) | Barnyardgrass plant response rating [7] | Ragweed plant response rating [9, 19] | Plant response rating, Galium [16, 18] | Galium plant response rating [16, 19]
50: Plant response rating, Kochia ([2]; 500 g ai/ha) | Ragweed plant response rating [3] | Foxtail, Giant plant response rating [11, 19] | Plant response rating, Pigweed [12, 18]
10: Plant response rating, Foxtail, Giant [11, 18]
40: Kochia plant response rating [8, 19] | Wheat plant response rating [13, 19]
100: Plant response rating, Barnyardgrass ([1]; 500 g ai/ha) | Plant response rating, Foxtail, Giant ([5]; 500 g ai/ha)
70: Plant response rating, Barnyardgrass [7, 17] | Plant response rating, Ragweed [9, 18]
0: Kochia plant response rating [2] | Plant response rating, Ryegrass, Italian [10, 18] | Plant response rating, Wheat [13, 18] | Plant response rating, Corn [14, 18] | Plant response rating, Blackgrass [15, 17]
80: Plant response rating, Ragweed ([3]; 500 g ai/ha) | Pigweed plant response rating [6] | Corn plant response rating [14, 19]
30: Ryegrass, Italian plant response rating [10, 19] | Blackgrass plant response rating [15]

Cc1c(NS(=O)(=O)C(F)(F)F)cc(C(=O)N2CCC(F)CC2)c(C)c1F [Compound 109]
60: Ryegrass, Italian plant response rating [10, 19]
10: Plant response rating, Kochia [8, 18] | Plant response rating, Blackgrass [15, 17] | Blackgrass plant response rating [15]
70: Ryegrass, Italian plant response rating [4] | Barnyardgrass plant response rating [7] | Plant response rating, Ragweed [9, 18] | Wheat plant response rating [13, 19]
80: Plant response rating, Ryegrass, Italian ([4]; 500 g ai/ha) | Ragweed plant response rating [9, 19] | Pigweed plant response rating [12, 19] | Plant response rating, Galium [16, 18]
40: Kochia plant response rating [8, 19] | Plant response rating, Ryegrass, Italian [10, 18] | Foxtail, Giant plant response rating [11, 19] | Corn plant response rating [14, 19]
0: Plant response rating, Barnyardgrass [7, 17] | Plant response rating, Foxtail, Giant [11, 18] | Plant response rating, Corn [14, 18]
90: Barnyardgrass plant response rating [1] | Kochia plant response rating [2] | Ragweed plant response rating [3] | Plant response rating, Ragweed ([3]; 500 g ai/ha) | Galium plant response rating [16, 19]
100: Plant response rating, Barnyardgrass ([1]; 500 g ai/ha) | Plant response rating, Kochia ([2]; 500 g ai/ha) | Foxtail, Giant plant response rating [5] | Plant response rating, Foxtail, Giant ([5]; 500 g ai/ha) | Pigweed plant response rating [6] | Plant response rating, Pigweed ([6]; 500 g ai/ha)
30: Plant response rating, Wheat [13, 18]
50: Plant response rating, Pigweed [12, 18]

COC1CCN(C(=O)c2cc(NS(=O)(=O)C(F)(F)F)c(C)c(F)c2C)CC1 [Compound 110]
20: Ryegrass, Italian plant response rating [4] | Plant response rating, Barnyardgrass [7, 17] | Plant response rating, Wheat [13, 18]
100: Plant response rating, Kochia ([2]; 500 g ai/ha) | Plant response rating, Foxtail, Giant ([5]; 500 g ai/ha) | Plant response rating, Pigweed ([6]; 500 g ai/ha) | Pigweed plant response rating [12, 19]
0: Plant response rating, Ryegrass, Italian [10, 18] | Plant response rating, Foxtail, Giant [11, 18] | Plant response rating, Corn [14, 18] | Plant response rating, Blackgrass [15, 17] | Blackgrass plant response rating [15]
80: Kochia plant response rating [2] | Ragweed plant response rating [3] | Pigweed plant response rating [6] | Barnyardgrass plant response rating [7] | Galium plant response rating [16, 19]
40: Barnyardgrass plant response rating [1]
70: Plant response rating, Pigweed [12, 18] | Plant response rating, Galium [16, 18]
90: Plant response rating, Barnyardgrass ([1]; 500 g ai/ha) | Plant response rating, Ragweed ([3]; 500 g ai/ha) | Plant response rating, Ryegrass, Italian ([4]; 500 g ai/ha) | Foxtail, Giant plant response rating [5] | Plant response rating, Ragweed [9, 18] | Ragweed plant response rating [9, 19] | Foxtail, Giant plant response rating [11, 19]
10: Plant response rating, Kochia [8, 18] | Corn plant response rating [14, 19]
50: Kochia plant response rating [8, 19] | Ryegrass, Italian plant response rating [10, 19]
60: Wheat plant response rating [13, 19]

COC1CN(C(=O)c2cc(NS(=O)(=O)C(F)(F)F)c(C)cc2C)C1 [Compound 111]
90: Pigweed plant response rating [6] | Plant response rating, Ragweed [9, 18] | Plant response rating, Pigweed [12, 18]
40: Ragweed plant response rating [3] | Plant response rating, Barnyardgrass ([7]; 31 g ai/ha) | Plant response rating, Corn [14, 18]
10: Plant response rating, Barnyardgrass [1, 20] | Plant response rating, Ragweed [3, 20] | Plant response rating, Pigweed [6, 20]
50: Kochia plant response rating [2] | Plant response rating, Wheat [13, 18] | Plant response rating, Galium [16, 21]
80: Plant response rating, Barnyardgrass [7, 17]
70: Ryegrass, Italian plant response rating [4] | Plant response rating, Ragweed [9, 21] | Plant response rating, Galium [16, 18]
60: Foxtail, Giant plant response rating [5] | Plant response rating, Kochia [8, 18] | Plant response rating, Foxtail, Giant [11, 18]
30: Barnyardgrass plant response rating [1] | Plant response rating, Ryegrass, Italian [10, 21] | Plant response rating, Ryegrass, Italian [10, 18]
0: Plant response rating, Kochia [2, 20] | Plant response rating, Ryegrass, Italian [4, 20] | Plant response rating, Foxtail, Giant [5, 20] | Plant response rating, Foxtail, Giant [11, 21] | Plant response rating, Wheat [13, 21] | Plant response rating, Corn [14, 21] | Plant response rating, Blackgrass ([15]; 31 g ai/ha) | Plant response rating, Blackgrass [15, 17]
20: Plant response rating, Kochia [8, 21] | Plant response rating, Pigweed [12, 21]

Cc1cc(C)c(C(=O)N2COC(C)(C)C2)cc1NS(=O)(=O)C(F)(F)F [Compound 112]
10: Plant response rating, Kochia [2, 20] | Plant response rating, Foxtail, Giant [11, 21]
50: Foxtail, Giant plant response rating [5] | Plant response rating, Pigweed [6, 20] | Plant response rating, Foxtail, Giant [11, 18] | Plant response rating, Pigweed [12, 21]
20: Plant response rating, Barnyardgrass [1, 20] | Plant response rating, Kochia [8, 21] | Plant response rating, Corn [14, 18]
60: Kochia plant response rating [2] | Plant response rating, Ryegrass, Italian [10, 18] | Plant response rating, Pigweed [12, 18]
40: Plant response rating, Barnyardgrass ([7]; 31 g ai/ha) | Plant response rating, Wheat [13, 18]
0: Plant response rating, Ryegrass, Italian [4, 20] | Plant response rating, Ryegrass, Italian [10, 21] | Plant response rating, Wheat [13, 21] | Plant response rating, Corn [14, 21] | Plant response rating, Blackgrass ([15]; 31 g ai/ha)
30: Barnyardgrass plant response rating [1] | Plant response rating, Ragweed [3, 20] | Ryegrass, Italian plant response rating [4] | Plant response rating, Kochia [8, 18] | Plant response rating, Blackgrass [15, 17]
80: Plant response rating, Ragweed [9, 21]
100: Pigweed plant response rating [6]
70: Plant response rating, Barnyardgrass [7, 17]
90: Ragweed plant response rating [3] | Plant response rating, Ragweed [9, 18] | Plant response rating, Galium [16, 21] | Plant response rating, Galium [16, 18]
